Activity calls are given as the source filed them. For most assays here, no stated cut-off is given here; in the data, actives have a measured EC50 and inactives only a lower limit.
Tests used:
[1] = molecular target: T1, Nuclear receptor subfamily 0 group B member 1 (Homo sapiens, UniProt P51843); test: Luminescence-based cell-based high throughput dose response assay for inhibitors of the orphan nuclear receptor subfamily 0, group B, member 1 (DAX1; NR0B1). [Related pubchem assays (depositor defined):AID504766, AID504790]; type: functional
T1 sequence (P51843 whole entry): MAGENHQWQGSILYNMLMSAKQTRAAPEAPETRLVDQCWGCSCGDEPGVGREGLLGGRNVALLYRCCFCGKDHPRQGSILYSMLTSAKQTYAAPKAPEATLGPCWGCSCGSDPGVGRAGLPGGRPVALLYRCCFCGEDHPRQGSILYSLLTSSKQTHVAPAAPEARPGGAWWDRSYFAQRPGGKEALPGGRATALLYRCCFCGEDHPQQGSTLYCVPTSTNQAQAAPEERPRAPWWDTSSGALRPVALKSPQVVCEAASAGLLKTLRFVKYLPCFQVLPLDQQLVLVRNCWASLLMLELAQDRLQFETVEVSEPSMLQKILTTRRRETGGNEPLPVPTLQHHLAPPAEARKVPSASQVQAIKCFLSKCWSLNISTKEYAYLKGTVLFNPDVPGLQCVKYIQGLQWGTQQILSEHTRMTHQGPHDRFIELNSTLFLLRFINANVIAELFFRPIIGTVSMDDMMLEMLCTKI

[2] = system: HEK293; test: cells; type: functional, cell-based; conditions: Homo sapiens
[3] = system: BJ; test: cells; type: functional, cell-based; conditions: Homo sapiens
[4] = cytotoxicity toward DRD oncogenic fibroblasts, dose response, cell-based, non-viral oncogenic, luminescence (AID 1934); type: functional; conditions: Homo sapiens
[5] = system: BJ; test: cytotoxicity toward Ras-transformed BJeLR fibroblasts, dose response, cell-based, alamar blue fluorescence, cherrypicked samples (AID 2631); type: functional; conditions: Homo sapiens;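 further: confirmatory dose-response assay in RAS-dependent BJ fibroblasts engineered with TERT, LT and ST, with cytotoxicity read by fluorescence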
[6] = system: BJ; test: cytotoxicity toward BJ-TERT fibroblasts, dose response, cell-based, RAS-independent, luminescence (AID 1933); type: functional; conditions: Homo sapiens
[7] = Luminescence Cell-Based Dose Response HTS to Identify Inhibitors of 5'UTR Stem-Loop Driven Prion Protein mRNA Translation in H4 Neuroglioblastoma Cells. [Related pubchem assays: 1827 (Project Summary), 1813 (Primary HTS)]; type: functional
[8] = system: BJ; test: cytotoxicity toward BJ-TERT-LT-ST fibroblasts, dose response, cell-based, RAS-independent, luminescence (AID 1935); type: functional; conditions: Homo sapiens;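 further: BJ fibroblasts immortalized with TERT plus LT and ST oncogenes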
[9] = inhibitors of SNCA 5'UTR-driven reporter translation, confirmation, H4 neuroglioma cells, luminescence (AID 1988); type: functional, cell-based
[10] = inhibitors of firefly luciferase expression or activity, dose response, H4 neuroglioma cells, luminescence (AID 1990); type: functional, cell-based

O=C(CN1C(=O)NC2(CCCC2)C1=O)Nc1ccc(OC(F)(F)F)cc1
IC50 [1]: > 67.5 µM (inactive)
IC50 [2]: > 67.5 µM (inactive)

O=CNC(n1cnc2c(N3CCOCC3)ncnc21)C(Cl)(Cl)Cl (configuration not stated)
IC50 [1]: > 67.5 µM (inactive)
IC50 [2]: > 67.5 µM (inactive)

CCCc1cc(O)nc(SCC(=O)c2c(N)n(CC(C)C)c(=O)n(C)c2=O)n1
EC50 [3]: 9.97 µM (inconclusive)
EC50 [4]: 10.7 µM (active)
EC50 [5]: > 133 µM (inactive)
EC50 [6]: > 150 µM (not active)
EC50 [7]: 18.1 µM (active)
EC50 [8]: > 150 µM (not active)
EC50 [9]: 12.1 µM (active)
EC50 [10]: 9.13 µM (active)
